Numbers after ± are expanded uncertainties.
Key:
[1] = 101.33 kPa, Liquid, Vibrating tube method
[2] = relative permittivity at various frequencies (dimensionless); details: 100 kPa, Liquid, Frequency=1 MHz, Parallel plate capacitor
[3] = excess molar enthalpy (molar enthalpy of mixing); xn = mol fraction of the nth substance listed; details: 100 kPa, Liquid, Calvet calorimetry

CCC(C)CO (stereo not given) [2-methyl-1-butanol]
Details	mass density, [1] [kg/m3]	relative permittivity, [2]
298.15 K	814.98 ± 0.31	15.52 ± 0.23
308.15 K	807.63 ± 0.31	14.07 ± 0.23

CCC(C)CO (stereo not given) [2-methyl-1-butanol] + CCCCOCCCC
[3]
Details	excess molar enthalpy [kJ/mol]
298.15 K, x2 = 0.0954	0.278 ± 0.006
298.15 K, x2 = 0.162	0.472 ± 0.01
298.15 K, x2 = 0.2536	0.691 ± 0.015
298.15 K, x2 = 0.3156	0.808 ± 0.017
298.15 K, x2 = 0.4007	0.923 ± 0.02
298.15 K, x2 = 0.4806	1.01 ± 0.022
298.15 K, x2 = 0.5445	1.03 ± 0.022
298.15 K, x2 = 0.6338	1.04 ± 0.022
298.15 K, x2 = 0.7017	0.992 ± 0.021
298.15 K, x2 = 0.7832	0.883 ± 0.019
298.15 K, x2 = 0.8542	0.737 ± 0.016
298.15 K, x2 = 0.9335	0.424 ± 0.009
308.15 K, x2 = 0.0798	0.249 ± 0.006
308.15 K, x2 = 0.152	0.463 ± 0.01
308.15 K, x2 = 0.2539	0.704 ± 0.015
308.15 K, x2 = 0.3152	0.827 ± 0.018
308.15 K, x2 = 0.4069	0.938 ± 0.02
308.15 K, x2 = 0.4701	1.01 ± 0.022
308.15 K, x2 = 0.5703	1.05 ± 0.023
308.15 K, x2 = 0.6528	1.04 ± 0.022
308.15 K, x2 = 0.7263	0.984 ± 0.021
308.15 K, x2 = 0.8093	0.847 ± 0.018
308.15 K, x2 = 0.897	0.614 ± 0.013
308.15 K, x2 = 0.9553	0.293 ± 0.007

CCC(C)(C)O [2-methylbutan-2-ol]
Details	mass density, [1] [kg/m3]	relative permittivity, [2]
298.15 K	804.31 ± 0.82	5.63 ± 0.07
308.15 K	795.16 ± 0.8	5.23 ± 0.07

CCC(C)(C)O [2-methylbutan-2-ol] + CCCCOCCCC
excess molar enthalpy [kJ/mol], [3]
Details	298.15 K	308.15 K
x2 = 0.0916	0.233 ± 0.005	–
x2 = 0.0919	–	0.272 ± 0.006
x2 = 0.1591	0.41 ± 0.009	–
x2 = 0.1603	–	0.453 ± 0.01
x2 = 0.2403	0.589 ± 0.013	0.649 ± 0.014
x2 = 0.3201	0.752 ± 0.016	–
x2 = 0.3244	–	0.788 ± 0.017
x2 = 0.3985	0.878 ± 0.019	–
x2 = 0.4034	–	0.907 ± 0.019
x2 = 0.4755	0.979 ± 0.021	–
x2 = 0.476	–	1.02 ± 0.022
x2 = 0.5445	1.04 ± 0.022	–
x2 = 0.5541	–	1.1 ± 0.024
x2 = 0.6392	1.08 ± 0.023	–
x2 = 0.6992	1.07 ± 0.023	–
x2 = 0.702	–	1.14 ± 0.024
x2 = 0.7733	0.991 ± 0.021	–
x2 = 0.7747	–	1.08 ± 0.023
x2 = 0.8569	0.833 ± 0.018	–
x2 = 0.8671	–	0.854 ± 0.018
x2 = 0.9322	–	0.54 ± 0.012
x2 = 0.933	0.513 ± 0.011	–

CC(C)C(C)O (stereo not given) [3-methyl-2-butanol]
Details	mass density, [1] [kg/m3]	relative permittivity, [2]
298.15 K	813.09 ± 0.83	11.98 ± 0.19
308.15 K	804.35 ± 0.82	10.78 ± 0.19

CC(C)C(C)O (stereo not given) [3-methyl-2-butanol] + CCCCOCCCC
[3]
Details	excess molar enthalpy [kJ/mol]
298.15 K, x2 = 0.0959	0.369 ± 0.008
298.15 K, x2 = 0.1639	0.604 ± 0.013
298.15 K, x2 = 0.2508	0.852 ± 0.018
298.15 K, x2 = 0.3274	1.01 ± 0.022
298.15 K, x2 = 0.3977	1.1 ± 0.024
298.15 K, x2 = 0.4693	1.17 ± 0.025
298.15 K, x2 = 0.552	1.21 ± 0.026
298.15 K, x2 = 0.6335	1.2 ± 0.026
298.15 K, x2 = 0.7081	1.14 ± 0.024
298.15 K, x2 = 0.7757	1.04 ± 0.022
298.15 K, x2 = 0.8645	0.812 ± 0.017
298.15 K, x2 = 0.9394	0.444 ± 0.01
308.15 K, x2 = 0.0813	0.271 ± 0.006
308.15 K, x2 = 0.155	0.492 ± 0.011
308.15 K, x2 = 0.2572	0.759 ± 0.016
308.15 K, x2 = 0.3229	0.975 ± 0.021
308.15 K, x2 = 0.4119	1.1 ± 0.024
308.15 K, x2 = 0.4817	1.17 ± 0.025
308.15 K, x2 = 0.5473	1.21 ± 0.026
308.15 K, x2 = 0.6348	1.2 ± 0.026
308.15 K, x2 = 0.7226	1.13 ± 0.024
308.15 K, x2 = 0.8083	0.982 ± 0.021
308.15 K, x2 = 0.8908	0.703 ± 0.015
308.15 K, x2 = 0.9786	0.225 ± 0.005

CC(C)CCO [3-methylbutan-1-ol]
Details	mass density, [1] [kg/m3]	relative permittivity, [2]
298.15 K	804.24 ± 0.31	15.09 ± 0.22
308.15 K	796.95 ± 0.31	13.73 ± 0.22

CC(C)CCO [3-methylbutan-1-ol] + CCCCOCCCC
[3]
Details	excess molar enthalpy [kJ/mol]
298.15 K, x2 = 0.092	0.231 ± 0.005
298.15 K, x2 = 0.1608	0.39 ± 0.009
298.15 K, x2 = 0.2389	0.551 ± 0.012
298.15 K, x2 = 0.3161	0.67 ± 0.014
298.15 K, x2 = 0.3993	0.783 ± 0.017
298.15 K, x2 = 0.4694	0.852 ± 0.018
298.15 K, x2 = 0.5458	0.905 ± 0.019
298.15 K, x2 = 0.6389	0.925 ± 0.02
298.15 K, x2 = 0.7088	0.884 ± 0.019
298.15 K, x2 = 0.776	0.812 ± 0.017
298.15 K, x2 = 0.8626	0.645 ± 0.014
298.15 K, x2 = 0.9423	0.35 ± 0.008
308.15 K, x2 = 0.0836	0.226 ± 0.005
308.15 K, x2 = 0.1547	0.398 ± 0.009
308.15 K, x2 = 0.2348	0.576 ± 0.012
308.15 K, x2 = 0.3248	0.735 ± 0.016
308.15 K, x2 = 0.4249	0.846 ± 0.018
308.15 K, x2 = 0.4894	0.92 ± 0.02
308.15 K, x2 = 0.5775	0.952 ± 0.02
308.15 K, x2 = 0.6519	0.944 ± 0.02
308.15 K, x2 = 0.7302	0.895 ± 0.019
308.15 K, x2 = 0.787	0.811 ± 0.017
308.15 K, x2 = 0.8553	0.674 ± 0.015
308.15 K, x2 = 0.9681	0.236 ± 0.005

CCC(O)CC [3-pentanol]
Details	mass density, [1] [kg/m3]	relative permittivity, [2]
298.15 K	815.62 ± 0.83	13.21 ± 0.29
308.15 K	806.9 ± 0.82	11.39 ± 0.29

CCC(O)CC [3-pentanol] + CCCCOCCCC
[3]
Details	excess molar enthalpy [kJ/mol]
298.15 K, x2 = 0.0979	0.398 ± 0.009
298.15 K, x2 = 0.1702	0.664 ± 0.014
298.15 K, x2 = 0.2558	0.917 ± 0.02
298.15 K, x2 = 0.3242	1.07 ± 0.023
298.15 K, x2 = 0.4033	1.18 ± 0.025
298.15 K, x2 = 0.4684	1.26 ± 0.027
298.15 K, x2 = 0.5438	1.31 ± 0.028
298.15 K, x2 = 0.6374	1.3 ± 0.028
298.15 K, x2 = 0.7023	1.25 ± 0.027
298.15 K, x2 = 0.7739	1.13 ± 0.024
298.15 K, x2 = 0.8554	0.896 ± 0.019
298.15 K, x2 = 0.9278	0.539 ± 0.012
308.15 K, x2 = 0.0991	0.405 ± 0.009
308.15 K, x2 = 0.1692	0.657 ± 0.014
308.15 K, x2 = 0.235	0.846 ± 0.018
308.15 K, x2 = 0.3202	1.05 ± 0.022
308.15 K, x2 = 0.3985	1.16 ± 0.025
308.15 K, x2 = 0.5414	1.28 ± 0.027
308.15 K, x2 = 0.6464	1.28 ± 0.027
308.15 K, x2 = 0.7326	1.21 ± 0.026
308.15 K, x2 = 0.811	1.03 ± 0.022
308.15 K, x2 = 0.8986	0.761 ± 0.016
308.15 K, x2 = 0.9603	0.342 ± 0.008

CCCCCO [pentan-1-ol]
Details	mass density, [1] [kg/m3]	relative permittivity, [2]
298.15 K	810.89 ± 0.31	15 ± 0.24
308.15 K	803.7 ± 0.31	13.51 ± 0.24

CCCC(C)O (stereo not given) [pentan-2-ol]
Details	mass density, [1] [kg/m3]	relative permittivity, [2]
298.15 K	806.11 ± 0.82	13.54 ± 0.23
308.15 K	798 ± 0.81	12.08 ± 0.23

CCCC(C)O (stereo not given) [pentan-2-ol] + CCCCOCCCC
[3]
Details	excess molar enthalpy [kJ/mol]
298.15 K, x2 = 0.0974	0.351 ± 0.008
298.15 K, x2 = 0.1685	0.569 ± 0.012
298.15 K, x2 = 0.2474	0.775 ± 0.017
298.15 K, x2 = 0.3335	0.941 ± 0.02
298.15 K, x2 = 0.397	1.02 ± 0.022
298.15 K, x2 = 0.5096	1.12 ± 0.024
298.15 K, x2 = 0.549	1.13 ± 0.024
298.15 K, x2 = 0.6386	1.12 ± 0.024
298.15 K, x2 = 0.705	1.07 ± 0.023
298.15 K, x2 = 0.7803	0.971 ± 0.021
298.15 K, x2 = 0.8623	0.809 ± 0.017
298.15 K, x2 = 0.9322	0.495 ± 0.011
308.15 K, x2 = 0.0841	0.317 ± 0.007
308.15 K, x2 = 0.1634	0.577 ± 0.013
308.15 K, x2 = 0.2305	0.761 ± 0.016
308.15 K, x2 = 0.3156	0.943 ± 0.02
308.15 K, x2 = 0.4161	1.1 ± 0.024
308.15 K, x2 = 0.4834	1.19 ± 0.025
308.15 K, x2 = 0.5759	1.2 ± 0.026
308.15 K, x2 = 0.6314	1.2 ± 0.026
308.15 K, x2 = 0.7299	1.11 ± 0.024
308.15 K, x2 = 0.8144	0.978 ± 0.021
308.15 K, x2 = 0.908	0.672 ± 0.015
308.15 K, x2 = 0.964	0.312 ± 0.007

— the NIST ThermoML archive (doi:10.1016/j.jct.2015.03.021)
